Assay results from article PMC9115112, “A2B adenosine receptor antagonists rescue lymphocyte activity in adenosine-producing patient-derived cancer models” (Journal for Immunotherapy of Cancer, 2022).

Columns and labels:
human A1AR = target: T1, human A1AR (Homo sapiens, UniProt P30542); experiment: Radioligand binding, human A1AR ([3H]DPCPX, transfected CHO cells); settings: displacement of [3H]DPCPX, transfected CHO cells, n=3, racemic mixtures; read-out: Ki hA1
T1 construct: expressed in transfected cells; host or cells: CHO
T1 sequence (P30542 1-326): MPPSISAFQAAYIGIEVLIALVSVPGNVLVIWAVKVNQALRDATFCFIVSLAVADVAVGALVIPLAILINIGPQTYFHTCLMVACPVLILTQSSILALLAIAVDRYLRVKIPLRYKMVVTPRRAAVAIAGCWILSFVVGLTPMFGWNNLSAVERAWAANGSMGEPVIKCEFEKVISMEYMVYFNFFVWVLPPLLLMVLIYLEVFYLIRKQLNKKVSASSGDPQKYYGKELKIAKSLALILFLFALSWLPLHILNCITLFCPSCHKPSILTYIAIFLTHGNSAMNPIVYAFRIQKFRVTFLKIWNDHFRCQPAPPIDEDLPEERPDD
Procedure: (§1) The affinity and selectivity profiles of the ligands obtained was studied in vitro, radioligand binding assays, at the four human specific ARs subtypes, using experimental protocols previously described.[28–30] All ligands were prepared and tested as racemic mixtures. […] Non-specific binding was determined in the presence of R-PIA 10 µM for A1AR, NECA 50 µM for A2AAR, NECA 400 μΜ for A2BAR and R-PIA 100 μΜ for A3AR.

human A2AAR = target: T2, human A2AAR (Homo sapiens, UniProt P29274); experiment: Radioligand binding, human A2AAR ([3H]ZM241385, transfected HeLa cells); settings: displacement of [3H]ZM241385, human HeLa cells, n=3, racemic mixtures; read-out: Ki hA2A
T2 construct: expressed in transfected cells; host or cells: HeLa
T2 sequence (P29274 whole entry): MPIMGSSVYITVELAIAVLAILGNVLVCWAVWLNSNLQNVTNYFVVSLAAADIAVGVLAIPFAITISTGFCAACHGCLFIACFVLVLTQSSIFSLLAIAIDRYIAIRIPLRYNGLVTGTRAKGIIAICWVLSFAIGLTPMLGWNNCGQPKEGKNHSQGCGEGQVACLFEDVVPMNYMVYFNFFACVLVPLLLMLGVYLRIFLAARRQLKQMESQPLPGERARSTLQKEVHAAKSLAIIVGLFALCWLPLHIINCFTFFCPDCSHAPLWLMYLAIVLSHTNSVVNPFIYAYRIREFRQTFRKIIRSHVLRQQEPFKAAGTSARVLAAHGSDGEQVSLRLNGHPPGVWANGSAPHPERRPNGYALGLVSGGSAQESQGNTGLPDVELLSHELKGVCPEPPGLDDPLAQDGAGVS
Procedure: as §1

human A2BAR = target: T3, human A2BAR (Homo sapiens, UniProt P29275); experiment: Radioligand binding, human A2BAR ([3H]DPCPX, transfected HEK-293 cells); settings: displacement of [3H]DPCPX, human HEK-293 cells, n=3, racemic mixtures; read-out: Ki hA2B
T3 construct: expressed in transfected cells; host or cells: HEK-293
T3 sequence (P29275 1-332): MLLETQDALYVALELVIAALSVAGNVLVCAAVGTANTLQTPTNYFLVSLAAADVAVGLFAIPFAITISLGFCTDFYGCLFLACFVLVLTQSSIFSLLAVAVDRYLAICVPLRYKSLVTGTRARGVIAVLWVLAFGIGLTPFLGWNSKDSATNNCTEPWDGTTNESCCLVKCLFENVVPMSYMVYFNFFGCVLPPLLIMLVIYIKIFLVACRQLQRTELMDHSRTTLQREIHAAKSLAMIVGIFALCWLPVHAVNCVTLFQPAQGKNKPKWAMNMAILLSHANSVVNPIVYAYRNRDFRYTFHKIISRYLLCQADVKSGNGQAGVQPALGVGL
Procedure: as §1

human A3AR = target: T4, human A3AR (Homo sapiens, UniProt P0DMS8); experiment: Radioligand binding, human A3AR ([3H]NECA, transfected HeLa cells); settings: displacement of [3H]NECA, n=3, racemic mixtures, read-out: Ki hA3
T4 construct: expressed in transfected cells; host or cells: HeLa
T4 sequence (P0DMS8 1-318): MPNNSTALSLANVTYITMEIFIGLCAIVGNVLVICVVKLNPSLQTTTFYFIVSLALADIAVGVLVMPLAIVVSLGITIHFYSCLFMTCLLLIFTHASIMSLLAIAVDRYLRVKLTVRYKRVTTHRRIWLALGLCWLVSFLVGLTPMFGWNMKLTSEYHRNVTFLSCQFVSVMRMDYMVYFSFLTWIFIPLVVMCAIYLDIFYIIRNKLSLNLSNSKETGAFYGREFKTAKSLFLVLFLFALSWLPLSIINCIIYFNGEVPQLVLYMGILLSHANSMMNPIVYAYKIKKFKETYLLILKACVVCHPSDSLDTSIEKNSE
Procedure: as §1

Measured: Ki

CC1=C(C(=O)OC(C)C)C(c2ccco2)N2C(=N1)N(Cc1ccccc1F)c1ccccc12 (stereo not shown) [ISAM-R56B]
> 1000 nM: all assays above
